# In US20100048564A1, “FUSED BICYCLIC HETEROARYL DERIVATIVE” (DAIICHI SANKYO COMPANY, LIMITED, priority 2007, published 2010):
# Read-outs that look alike come from different tables or passages of the source.
# Key:
# human PPARγ2 = target: T1, human PPARγ2 (Homo sapiens, UniProt P37231); experiment: Evaluation of PPARγ modulator activity, PPRE luciferase reporter in MG63 cells (Test Example 2); type: cell-based; details: for Emax: MG-63; for IC50: in the presence of Compound A, concentration representing (100−Imax)/2; for Imax (%): maximum inhibition of luciferase activity in the presence of Compound A
# T1 construct: expressed in transfected cells; host or cells: human osteosarcoma cell line MG63, transiently transfected with pSG5-hPPARγ and pGV-P2-PPRE
# T1 sequence (P37231 1-505): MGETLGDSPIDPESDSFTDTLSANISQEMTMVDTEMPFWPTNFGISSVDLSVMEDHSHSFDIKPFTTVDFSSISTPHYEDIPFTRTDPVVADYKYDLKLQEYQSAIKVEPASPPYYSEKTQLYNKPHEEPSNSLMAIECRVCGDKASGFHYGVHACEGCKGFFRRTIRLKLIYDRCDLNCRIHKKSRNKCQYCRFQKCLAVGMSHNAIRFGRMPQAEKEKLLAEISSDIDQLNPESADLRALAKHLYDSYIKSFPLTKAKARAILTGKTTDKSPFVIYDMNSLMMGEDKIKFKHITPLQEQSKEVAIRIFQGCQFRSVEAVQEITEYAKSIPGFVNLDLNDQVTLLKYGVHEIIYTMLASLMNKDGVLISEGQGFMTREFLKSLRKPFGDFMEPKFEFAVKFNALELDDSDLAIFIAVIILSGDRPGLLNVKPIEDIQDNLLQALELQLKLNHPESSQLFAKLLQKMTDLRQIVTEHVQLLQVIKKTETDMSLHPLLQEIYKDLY
# Description: In FIG. 3, the luciferase activity of the positive control group is defined as 100% and the luciferase activity of the control group is defined as 0%.
# Polymerase chain reaction (hereinafter “PCR”) primers were designed based on the human PPARγ2 gene sequence (GenBANK accession No. D83233). The recognition sequences for restriction enzyme BglII were added to upstream and downstream regions of a gene encoding human PPARγ2 protein, in which the recognition sequences were necessary for inserting the gene into the restriction site BamHI of the expression plasmid pSG5 (Stratagene) for the gene.
# The recognition sequence for restriction enzyme NheI was added to S2 and the recognition sequence for restriction enzyme XhoI was added to AS2 for insertion into the reporter plasmid pGV-P2 (Toyo Ink Mfg. Co., Ltd.).
# PCR was carried out using thermostable DNA polymerase Ex-Taq (Takara Shuzo Co., Ltd.) with a human adipose tissue-derived cDNA library (Clontech) as a template and the DNA oligomers S1 and AS1 obtained in Procedure 1 as PCR primers. […] A cycle was repeated 30 times consisting of incubation at 94° C. for one minute, incubation at 55° C. for 30 seconds and incubation at 72° C. for 30 seconds. The resulting DNA fragment of about 1500 bp was partially cleaved by restriction enzyme BglII and inserted into the restriction site BamHI of pSG5 to obtain a human PPARγ expression plasmid pSG5-hPPARγ.
# A vector pGV-P2 digest was prepared by digestion with restriction enzymes NheI and XhoI and purification by 1.0% agarose gel electrophoresis. The DNA oligomers S2 and AS2 obtained in Procedure 2 were mixed, incubated in a hot water bath at 94° C. for one minute, and then incubated at 25° C. for one hour to form a double-stranded DNA with S2 and AS2 annealed. Thereafter, the terminals of the double-stranded DNA were phosphorylated using DNA polynucleotide kinase (Toyobo Co., Ltd.) and then ligated to the previously prepared pGV-P2 digest using the restriction sites NheI and XhoI to obtain a reporter plasmid pGV-P2-PPRE having a PPAR response sequence.
# The gene was transiently transferred to the human osteosarcoma cell line MG63, and then cells were harvested.
# Thereafter, DMSO diluted 20-fold with 10% α-MEM was added to the control group and the positive control group at 5 μl/well. 10% α-MEM was added to the test compound-added group at 95 μl/well. Thereafter, the test compound diluted to various concentrations with DMSO was diluted 20-fold with 10% α-MEM; this was added to the test compound-added group at 5 μl/well.
# Thereafter, DMSO was diluted 20-fold with 10% α-MEM; this was added to the control group and the positive control group at 5 μl/well. […] Thereafter, the test compound diluted to various concentrations with DMSO was diluted 20-fold with 10% α-MEM; this was added to the test compound-added group at 5 μl/well.
# The cells prepared in Procedures 6 and 7 were cultured for 24 hours and then the medium was removed. […] The mixture was left to stand at room temperature for about 10 minutes and then stirred with a micromixer (TAITEC E-36). The luciferase activity was measured using Analyst (Molecular Devices) and a dose-dependent curve was drawn.
# The IC50, Imax, EC50 and Emax of the test compound to be determined are defined as follows.
# Here, the concentration of the test compound representing Emax/2 is calculated as EC50. The concentration of the test compound representing (100−Imax)/2 is calculated as IC50. The IC50 and EC50 calculated in this manner were used for evaluating the PPARγ modulator activity.
# [1] = target: T2, GAL4-PPARγ chimeric receptor (Homo sapiens, UniProt P37231); experiment: Measurement of PPARγ activation effect/modulator activity, GAL4-PPARγ reporter assay in COS-7 cells (Test Example 5); type: cell-based; details: for Emax: COS-7
# T2 construct: containing amino acids 175 to 475 of human PPARγ and a stop codon at the carboxy end; expressed in transfected cells; host or cells: COS-7 (monkey kidney) cells, transfected with pM-PPARγ and pFR-Luc
# T2 sequence (P37231 with tags, fused parts or gaps): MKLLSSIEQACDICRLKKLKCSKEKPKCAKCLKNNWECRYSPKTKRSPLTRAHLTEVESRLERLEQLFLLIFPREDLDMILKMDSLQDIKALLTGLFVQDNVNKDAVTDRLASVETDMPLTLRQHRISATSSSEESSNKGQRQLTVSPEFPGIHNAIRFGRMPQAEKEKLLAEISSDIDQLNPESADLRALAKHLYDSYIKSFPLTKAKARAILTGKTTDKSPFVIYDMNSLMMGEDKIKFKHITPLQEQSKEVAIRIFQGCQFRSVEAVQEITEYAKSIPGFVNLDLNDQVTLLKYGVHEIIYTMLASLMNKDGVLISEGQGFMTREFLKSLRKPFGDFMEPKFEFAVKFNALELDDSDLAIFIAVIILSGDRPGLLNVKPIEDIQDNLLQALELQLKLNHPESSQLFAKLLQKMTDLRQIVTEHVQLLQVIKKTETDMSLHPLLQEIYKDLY
# Description: The details will be shown below.
# The plasmid is a gene that can express a GAL4-PPARγ chimeric receptor in mammalian cells.
# The previously acquired plasmid pM-PPARγ and the plasmid pFR-Luc purchased from Stratagene Cloning Systems, Inc. were dissolved in deionised water at a concentration of 1 mg/mL each.
# On the following day, the cells were harvested by trypsin treatment, suspended in phenol red-free Dulbecco's modified Eagle's medium containing […] 10% fetal bovine serum, seeded into a white 96-well plate (manufactured by Costar) using the medium in a volume of 95 μL per well, and cultured overnight.
# The test compound was dissolved in dimethyl sulfoxide at a concentration of 30 mM. […] Dimethyl sulfoxide was prepared for the control group. Rosiglitazone dissolved in dimethyl sulfoxide at a concentration of 30 mM was prepared for the positive control group. They were diluted 150-fold with the medium, and 5 μL of the dilution was added to the wells in which the cells were grown. The concentrations of the test compound treating the cells ranged from 10 μM to 0.006 nM. After the addition, the cells were cultured overnight.
# On the following day, the medium was removed, and Luc Lite (manufactured by PerkinElmer Inc.) was prepared according to the attached document and added at 50 microliters per well. The plates with cells in the Luc Lite was stirred for about 30 minutes. The amount of luminescence in each well was measured as luciferase activity using Analyst (Molecular Devices) for 0.5 second. A dose-dependent curve was drawn.
# [2] = maximum luciferase activity by test compound alone, positive control (Compound A) 100%, control 0%, read-out: Emax (%)
# [3] = MG63 cells, luciferase activity
# [4] = test compound alone, concentration representing Emax/2, MG63 cells, luciferase activity, read-out: EC50
# [5] = maximum luciferase activity, positive control (Rosiglitazone) 100%, control 0%, read-out: Emax (%)
# [6] = COS-7 cells with pM-PPARγ and pFR-Luc, concentration represented by Emax/2, read-out: EC50
SMILES,Emax (human PPARγ2; [2]),IC50 (human PPARγ2; [3]),Imax (%) (human PPARγ2),EC50 (human PPARγ2; [4]),"Emax [1, 5]","EC50 [1, 6]",EC50 (human PPARγ2),Emax (human PPARγ2),EC50 [1],Emax [1]
"Cc1cc(Oc2ccc3nc(COc4cccc(C(=O)O)c4)n(C)c3c2)cc(C)c1N.Cl.Cl [Example 2, 3-{[6-(4-Amino-3,5-dimethylphenoxy)-1-methyl-1H-benzimidazol-2-yl]methoxy}benzoic acid dihydrochloride]",70%,56.1 nM,−44%,3.28 nM,73.3%,299000 pM,–,–,–,–
"Cl.Cn1c(COc2cccc(C(=O)O)c2)nc2ccc(Oc3ccccc3)cc21 [Example 14, 3-[(1-Methyl-6-phenoxy-1H-benzimidazol-2-yl)methoxy]benzoic acid hydrochloride]",–,–,−35%,–,–,–,51.7 nM,54%,845000 pM,89.6%
"Cl.Cl.Cn1c(COc2cccc(C(=O)O)c2)nc2ccc(Oc3ccccc3)nc21 [Example 16, 3-[(3-Methyl-5-phenoxy-3H-imidazo[4,5-b]pyridin-2-yl)methoxy]benzoic acid dihydrochloride]",46%,402 nM,−44%,26.4 nM,60.9%,550000 pM,–,–,–,–

# Continued, in another order:
Emax (human PPARγ2; [2]),IC50 (human PPARγ2; [3]),Imax (%) (human PPARγ2),EC50 (human PPARγ2; [4]),"Emax [1, 5]","EC50 [1, 6]",SMILES,EC50 (human PPARγ2),Emax (human PPARγ2),EC50 [1],Emax [1]
39%,73.3 nM,−34%,7.72 nM,91%,4.74e+06 pM,"Cl.Cn1c(COc2cccc(C(=O)O)c2)nc2ccc(Oc3cccc(F)c3)cc21 [Example 8, 3-{[6-(3-Fluorophenoxy)-1-methyl-1H-benzimidazol-2-yl]methoxy}benzoic acid hydrochloride]",–,–,–,–
42%,33.2 nM,−50%,2.06 nM,46.5%,67000 pM,"Cl.Cn1c(COc2cccc(C(=O)O)c2)nc2ccc(Oc3ccc(Cl)c(F)c3)cc21 [Example 10, 3-{[6-(4-Chloro-3-fluorophenoxy)-1-methyl-1H-benzimidazol-2-yl]methoxy}benzoic acid hydrochloride]",–,–,–,–
42%,40.4 nM,−43%,2.34 nM,60.2%,39700 pM,"Cl.Cn1c(COc2cccc(C(=O)O)c2)nc2ccc(Oc3ccc(F)c(Cl)c3)cc21 [Example 12, 3-{[6-(3-Chloro-4-fluorophenoxy)-1-methyl-1H-benzimidazol-2-yl]methoxy}benzoic acid hydrochloride]",–,–,–,–
